Test results published in patent US12398179B2, “Nanomolar peptides and derivatives to differentially modulate ephrin receptors” (Sanford Burnham Prebys Medical Discovery Institute, priority 2019, dated 2025).
In brackets after ≈: the same amount, converted by molar mass. Non-standard residues stand in square brackets, D forms with d. Residues, ends and D or L forms follow the SMILES beside them. No end group written: not given here. *: point of attachment. Biotin = O=C1N[C@H]2[C@H](CS[C@H]2CCCCC(=O)*)N1; βAla = NCCC(=O)O

Columns and labels:
[1] = Peptide solubility in PBS/H2O
EphA2 = EphA2 (Homo sapiens, UniProt P29317); test: ELISA: inhibition of ephrin-A5 AP binding to immobilized EphA2 Fc; design: the immobilized EphA2 extracellular domain fused to the Fc portion of an antibody (EphA2 Fc); settings: average ± SE
Description: (FIG. 2A) Representative ELISAs comparing the ability of the peptides to inhibit binding of ephrin-A5 fused to alkaline phosphatase (ephrin-A5 AP) to the immobilized EphA2 extracellular domain fused to the Fc portion of an antibody (EphA2 Fc). The graphs show averages±SE from triplicate measurements from a representative experiment. IC50 values calculated from the fitted curves in each experiment are shown. All concentrations are nM and the 100 nM peptide concentration is outlined in red. (FIG. 2B) Ephrin-A5 AP binding to the indicated EphA receptors and ephrin-B2 AP binding to the indicated EphB receptors in the presence of the indicated peptide, normalized to ephrin binding without peptide. The bars show averages±SE from triplicate measurements.

EphA2 LBD = target: T1, EphA2 LBD (Homo sapiens, UniProt P29317); test: Isothermal titration calorimetry (ITC) of peptide binding; settings: 1 mM biotin
T1 construct: EphA2 LBD (residues 28-200); made in house; host or cells: E. coli Origami 2 (DE3)
Description: For ITC, all peptides were dissolved in DMSO and both the EphA2 LBD and the peptides were diluted to obtain a final buffer containing 9.5 mM HEPES, pH 7.9, 95 mM NaCl, and 5% DMSO. […] Two-microliter aliquots of a peptide solution were injected into the cell containing 205 μL EphA2 LBD. 200-400 μM peptides were titrated into 20-40 μM EphA2 LBD. Experimental data were analyzed using the Origin software package (Microcal). The integrated values for the reaction heats were normalized to the amount of injected peptide after blank subtraction.

[2] = PBS, Solubility in PBS (mg/ml), PBS (first figure of cell)
[3] = water, Solubility in H2O (mg/ml), H2O (second figure of cell)

EphA2, sequence (P29317 24-537 limits assumed, species assumed): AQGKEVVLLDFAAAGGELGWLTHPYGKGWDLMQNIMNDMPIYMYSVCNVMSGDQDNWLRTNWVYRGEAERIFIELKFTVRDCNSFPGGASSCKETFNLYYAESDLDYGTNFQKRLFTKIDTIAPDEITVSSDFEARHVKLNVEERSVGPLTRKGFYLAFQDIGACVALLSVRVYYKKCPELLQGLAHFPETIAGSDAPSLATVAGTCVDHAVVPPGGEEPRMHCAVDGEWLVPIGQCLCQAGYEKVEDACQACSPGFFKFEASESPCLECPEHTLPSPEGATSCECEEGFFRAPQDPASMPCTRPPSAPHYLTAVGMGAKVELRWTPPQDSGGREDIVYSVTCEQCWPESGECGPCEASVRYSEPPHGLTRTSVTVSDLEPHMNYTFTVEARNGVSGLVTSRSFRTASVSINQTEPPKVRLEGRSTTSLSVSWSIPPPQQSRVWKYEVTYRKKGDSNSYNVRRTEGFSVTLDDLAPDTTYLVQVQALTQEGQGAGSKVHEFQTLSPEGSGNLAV
T1 sequence (P29317 28-200): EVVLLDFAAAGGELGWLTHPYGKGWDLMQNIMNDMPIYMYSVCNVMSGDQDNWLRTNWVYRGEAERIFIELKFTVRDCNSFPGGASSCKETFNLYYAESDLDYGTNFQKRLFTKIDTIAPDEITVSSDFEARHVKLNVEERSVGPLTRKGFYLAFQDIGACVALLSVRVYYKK

Row | Compound | solubility [1, 2] | solubility ([1]; H2O, Solubility in H2O (mg/ml), H2O (second figure of cell)) | solubility [1, 3] | IC50 (EphA2) | binding to the EphA2 LBD by ITC (in words) (EphA2 LBD)
1 | CC(C)C[C@H](NC(=O)[C@H](Cc1c[nH]c2ccccc12)NC(=O)[C@H](C)NC(=O)CNC(=O)[C@@H](N)CSCC(N)=O)C(=O)N[C@@H](C)C(=O)N[C@@H](Cc1ccc(O)cc1)C(=O)N1CCC[C@H]1C(=O)N[C@@H](CC(=O)O)C(=O)N[C@@H](CO)C(=O)N[C@H](C(=O)N1CCC[C@H]1C(=O)N[C@@H](Cc1ccc(O)cc1)C(=O)N[C@@H](CCCNC(=N)N)C(=O)N1CCC[C@H]1C(=O)N[C@@H](CCCCNC(=O)CCCC[C@@H]1SC[C@@H]2NC(=O)N[C@@H]21)C(=O)O)C(C)C [CcamGA-WLA-YRPK-bio] | < 100 µg/mL | – | – | – | –
2 | CC(C)C[C@H](NC(=O)[C@H](Cc1c[nH]c2ccccc12)NC(=O)[C@H](C)NC(=O)[C@@H](N)CCCCNC(=O)CCCC[C@@H]1SC[C@@H]2NC(=O)N[C@@H]21)C(=O)N[C@@H](C)C(=O)N[C@@H](Cc1ccc(O)cc1)C(=O)N1CCC[C@H]1C(=O)N[C@@H](CC(=O)O)C(=O)N[C@@H](CO)C(=O)N[C@H](C(=O)N1CCC[C@H]1C(=O)N[C@@H](Cc1ccc(O)cc1)C(=O)N[C@@H](CCCNC(=N)N)C(=O)N1CCC[C@H]1C(=O)N[C@@H](CCCCN)C(N)=O)C(C)C [K-bioA-WLA-YRPKam] | 10000 µg/mL (≈ 4.96 mM) | 10000 µg/mL (≈ 4.96 mM) | – | – | –
3 | CSCC[C@H](NC(=O)[C@@H]1CCCN1C(=O)[C@@H](NC(=O)[C@H](CO)NC(=O)[C@H](CC(=O)O)NC(=O)[C@@H]1CCCN1C(=O)[C@H](Cc1ccc(O)cc1)NC(=O)[C@H](C)NC(=O)[C@H](CO)NC(=O)[C@@H](N)Cc1ccc(O)cc1)C(C)C)C(N)=O [YSA1-10am] | 10000 µg/mL (≈ 8.86 mM) | – | 10000 µg/mL (≈ 8.86 mM) | – | –
4 | CSCC[C@H](NC(=O)[C@H](CCSC)NC(=O)[C@@H]1CCCN1C(=O)[C@@H](NC(=O)[C@H](CO)NC(=O)[C@H](CC(=O)O)NC(=O)[C@@H]1CCCN1C(=O)[C@H](Cc1ccc(O)cc1)NC(=O)[C@H](C)NC(=O)[C@H](CO)NC(=O)[C@@H](N)Cc1ccc(O)cc1)C(C)C)C(=O)N[C@@H](CO)C(=O)NCC(=O)N[C@@H](CO)C(=O)NCC(=O)N[C@@H](CO)C(=O)N[C@@H](CCCCN)C(=O)O [YSA-GSGSK] | 10000 µg/mL (≈ 5.67 mM) | – | 5000 µg/mL (≈ 2.83 mM) | 4500 nM | –
5 | CSCC[C@H](NC(=O)[C@H](CCSC)NC(=O)[C@@H]1CCCN1C(=O)[C@@H](NC(=O)[C@H](CO)NC(=O)[C@H](CC(=O)O)NC(=O)[C@@H]1CCCN1C(=O)[C@H](Cc1ccc(O)cc1)NC(=O)[C@H](C)NC(=O)[C@H](CO)NC(=O)[C@@H](N)Cc1ccc(O)cc1)C(C)C)C(=O)N[C@@H](CO)C(=O)N[C@@H](CCCCNC(=O)CCCC[C@@H]1SC[C@@H]2NC(=O)N[C@@H]21)C(=O)O [YSA-K-bio] | 10000 µg/mL (≈ 5.88 mM) | – | 10000 µg/mL (≈ 5.88 mM) | – | –
6 | O=C(O)CCCC[C@@H]1SC[C@@H]2NC(=O)N[C@@H]21 [biotin, reference compound] | – | – | – | – | did not detect binding
7 | CC(C)C[C@H](NC(=O)[C@H](Cc1c[nH]c2ccccc12)NC(=O)CCN)C(=O)N[C@@H](C)C(=O)N[C@@H](Cc1ccc(O)cc1)C(=O)N1CCC[C@H]1C(=O)N[C@@H](CC(=O)O)C(=O)N[C@@H](CO)C(=O)N[C@H](C(=O)N1CCC[C@H]1C(=O)N[C@@H](Cc1ccc(O)cc1)C(=O)NCC(=O)N[C@@H](CO)C(=O)NCC(=O)N[C@@H](CCCCNC(=O)CCCC[C@@H]1SC[C@@H]2NC(=O)N[C@@H]21)C(=O)O)C(C)C [βA-WLA-YGSGK-bio] (H-[βAla]WLAYPDSVPYGSGK(Biotin)-OH; N-terminus and C-terminus assumed) | 5000 µg/mL (≈ 2.72 mM) | – | 5000 µg/mL (≈ 2.72 mM) | 330 ± 40 nM | –
8 | WLAYPDSVPM-NH2 [WLAam] | – | – | – | 1500 nM | –

Continued, in another order:

Row | solubility [1, 2] | solubility ([1]; H2O, Solubility in H2O (mg/ml), H2O (second figure of cell)) | solubility [1, 3] | IC50 (EphA2) | Compound | binding to the EphA2 LBD by ITC (in words) (EphA2 LBD)
9 | – | – | – | 400 ± 70 nM | CC(C)C[C@H](NC(=O)[C@H](Cc1c[nH]c2ccccc12)NC(=O)CCN)C(=O)N[C@@H](C)C(=O)N[C@@H](Cc1ccc(O)cc1)C(=O)N1CCC[C@H]1C(=O)N[C@@H](CC(=O)O)C(=O)N[C@@H](CO)C(=O)N[C@H](C(=O)N1CCC[C@H]1C(=O)N[C@@H](Cc1ccc(O)cc1)C(=O)NCC(=O)N[C@@H](CO)C(=O)N[C@@H](CCCCNC(=O)CCCC[C@@H]1SC[C@@H]2NC(=O)N[C@@H]21)C(=O)O)C(C)C [βA-WLA-YGSK-bio] (H-[βAla]WLAYPDSVPYGSK(Biotin)-OH; N-terminus and C-terminus assumed) | –
10 | – | – | – | 730 ± 90 nM | CC(C)C[C@H](NC(=O)[C@H](Cc1c[nH]c2ccccc12)NC(=O)CCN)C(=O)N[C@@H](C)C(=O)N[C@@H](Cc1ccc(O)cc1)C(=O)N1CCC[C@H]1C(=O)N[C@@H](CC(=O)O)C(=O)N[C@@H](CO)C(=O)N[C@H](C(=O)N1CCC[C@H]1C(=O)N[C@@H](Cc1ccc(O)cc1)C(=O)N[C@@H](CCCCNC(=O)CCCC[C@@H]1SC[C@@H]2NC(=O)N[C@@H]21)C(=O)O)C(C)C [βA-WLA-YK-bio] (H-[βAla]WLAYPDSVPYK(Biotin)-OH; N-terminus and C-terminus assumed) | –
11 | 5000 µg/mL (≈ 3.48 mM) | – | 5000 µg/mL (≈ 3.48 mM) | 390 ± 30 nM | CC(C)C[C@H](NC(=O)[C@H](Cc1c[nH]c2ccccc12)NC(=O)CCN)C(=O)N[C@@H](C)C(=O)N[C@@H](Cc1ccc(O)cc1)C(=O)N1CCC[C@H]1C(=O)N[C@@H](CC(=O)O)C(=O)N[C@@H](CO)C(=O)N[C@H](C(=O)N1CCC[C@H]1C(=O)N[C@@H](Cc1ccc(O)cc1)C(=O)N[C@@H](CCCNC(=N)N)C(=O)O)C(C)C [βA-WLA-YR] (HELM PEPTIDE1{[bAla].W.L.A.Y.P.D.S.V.P.Y.R}$$$$V2.0; N-terminus and C-terminus assumed) | –
12 | 2000 µg/mL (≈ 1.16 mM) | – | – | – | CC(C)C[C@H](NC(=O)[C@H](Cc1c[nH]c2ccccc12)NC(=O)CCN)C(=O)N[C@@H](C)C(=O)N[C@@H](Cc1ccc(O)cc1)C(=O)N1CCC[C@H]1C(=O)N[C@@H](CC(=O)O)C(=O)N[C@@H](CO)C(=O)N[C@H](C(=O)N1CCC[C@H]1C(=O)N[C@@H](Cc1ccc(O)cc1)C(=O)N[C@@H](CO)C(=O)N[C@@H](CCCCNC(=O)CCCC[C@@H]1SC[C@@H]2NC(=O)N[C@@H]21)C(=O)O)C(C)C [βA-WLA-YSK-bio] (H-[βAla]WLAYPDSVPYSK(Biotin)-OH; N-terminus and C-terminus assumed) | –
13 | 5000 µg/mL (≈ 3.34 mM) | – | 2000 µg/mL (≈ 1.34 mM) | 380 ± 140 nM | CC(C)C[C@H](NC(=O)[C@H](Cc1c[nH]c2ccccc12)NC(=O)CCN)C(=O)N[C@@H](C)C(=O)N[C@@H](Cc1ccc(O)cc1)C(=O)N1CCC[C@H]1C(=O)N[C@@H](CC(=O)O)C(=O)N[C@@H](CO)C(=O)N[C@H](C(=O)N1CCC[C@H]1C(=O)N[C@@H](Cc1ccc(O)cc1)C(=O)N[C@@H](CO)C(=O)N[C@@H](CCCCN)C(=O)O)C(C)C [βA-WLA-YSK] (HELM PEPTIDE1{[bAla].W.L.A.Y.P.D.S.V.P.Y.S.K}$$$$V2.0; N-terminus and C-terminus assumed) | –
14 | – | – | – | 62 ± 3 nM | CC(C)C[C@H](NC(=O)[C@H](Cc1c[nH]c2ccccc12)NC(=O)CCN)C(=O)N[C@@H](C)C(=O)N[C@@H](Cc1ccc(O)cc1)C(=O)N1CCC[C@H]1C(=O)N[C@@H](CC(=O)O)C(=O)N[C@@H](CO)C(=O)N[C@H](C(=O)N1CCC[C@H]1C(=O)N[C@@H](Cc1ccc(O)cc1)C(=O)N[C@@H](CO)C(=O)N1CCC[C@H]1C(=O)N[C@@H](CCCCNC(=O)CCCC[C@@H]1SC[C@@H]2NC(=O)N[C@@H]21)C(=O)O)C(C)C [βA-WLA-YSPK-bio] (H-[βAla]WLAYPDSVPYSPK(Biotin)-OH; N-terminus and C-terminus assumed) | –
15 | – | – | 5000 µg/mL (≈ 3.9 mM) | 410 ± 50 nM | CC(C)C[C@H](NC(=O)[C@H](Cc1c[nH]c2ccccc12)NC(=O)CCN)C(=O)N[C@@H](C)C(=O)N[C@@H](Cc1ccc(O)cc1)C(=O)N1CCC[C@H]1C(=O)N[C@@H](CC(=O)O)C(=O)N[C@@H](CO)C(=O)N[C@H](C(=O)N1CCC[C@H]1C(=O)N[C@@H](Cc1ccc(O)cc1)C(N)=O)C(C)C [βA-WLA-Yam] (HELM PEPTIDE1{[bAla].W.L.A.Y.P.D.S.V.P.Y.[am]}$$$$V2.0; N-terminus assumed) | –
16 | 10000 µg/mL (≈ 8.01 mM) | – | 10000 µg/mL (≈ 8.01 mM) | 840 ± 80 nM | CSCC[C@H](NC(=O)[C@@H]1CCCN1C(=O)[C@@H](NC(=O)[C@H](CO)NC(=O)[C@H](CC(=O)O)NC(=O)[C@@H]1CCCN1C(=O)[C@H](Cc1ccc(O)cc1)NC(=O)[C@H](C)NC(=O)[C@H](CC(C)C)NC(=O)[C@H](Cc1c[nH]c2ccccc12)NC(=O)CCN)C(C)C)C(N)=O [βA-WLAam] (HELM PEPTIDE1{[bAla].W.L.A.Y.P.D.S.V.P.M.[am]}$$$$V2.0; N-terminus assumed) | –
